Our source for the T/C values is PubChem BioAssay AID336 (DTP/NCI, 2004).

This test has as its system BDF1 mice, P388/VCR leukemia ip, median survival T/C. Kind of test: NCI In Vivo Anticancer Drug Screen. Data for tumor model P388 Leukemia resistant to Vincristine; NSC 67574 (intraperitoneal) in B6D2F1 (BDF1) mice. The following applies: endpoint: median survival time, higher = longer survival. As to the method:
The antitumor activity of compounds was measured in mice bearing transplantable tumors. Survival or tumor size were measured and the results are expressed as the measurement made in the treated group (T) divided by the measurement made in the vehicle treated control group (C). The tumor model used in this assay is P388 Leukemia resistant to Vincristine; NSC 67574 (intraperitoneal) in B6D2F1 (BDF1) mice

SMILES strings stand for the structures. Toxic doses and inconclusive results are not listed.

Regarding `O=c1[nH]c(=O)n(C2CC(O)C(CO)O2)cc1F` (configuration not stated), the T/C reads like this: (dose: 20.0 mg/kg/injection, schedule: Q01DX010 (ip), vehicle: saline) 112 % of control; (dose: 40.0 mg/kg/injection, schedule: Q01DX010 (ip), vehicle: saline) 154 % of control.
For the molecule `CCC1(O)CC2CN(CCc3c([nH]c4ccccc34)C(C(=O)OC)(c3cc4c(cc3OC)N(C)C3C(O)(C(N)=O)C(O)C5(CC)C=CCN6CCC43C65)C2)C1` (configuration not stated) (tested in a mixture with another compound), the T/C by setting is: (dose: 500.0 micrograms/kg/injection, schedule: Q04DX003 (ip), vehicle: saline) 107 % of control; (dose: 648.0 micrograms/kg/injection, schedule: Q04DX003 (ip), vehicle: saline) 106 % of control; (dose: 1000.0 micrograms/kg/injection, schedule: Q04DX003 (ip), vehicle: saline) 118 % of control; (dose: 1080.0 micrograms/kg/injection, schedule: Q04DX003 (ip), vehicle: saline) 100 % of control; (dose: 1800.0 micrograms/kg/injection, schedule: Q04DX003 (ip), vehicle: saline) 98 % of control; (dose: 4000.0 micrograms/kg/injection, schedule: Q04DX003 (ip), vehicle: saline) 110 % of control.
In the case of `COc1cccc2c1C(=O)c1c(O)c3c(c(O)c1C2=O)C[C@@](O)(C(C)=O)C[C@@H]3OC1CC(N)C(O)C(C)O1` (some centres not stated), the T/C was 110 % of control (dose: 3.6 mg/kg/injection, schedule: Q04DX003 (ip), vehicle: water); 104 % of control (dose: 6.0 mg/kg/injection, schedule: Q04DX003 (ip), vehicle: water); 114 % of control (dose: 8.0 mg/kg/injection, schedule: Q04DX003 (ip), vehicle: water).
Consider `CC(=O)O[C@]1(C(C)=O)CC[C@H]2[C@@H]3C[C@H](C)C4=CC(=O)C=C[C@]4(C)[C@@]3(F)[C@@H](O)C[C@@]21C`, for which the T/C is 103 % of control (dose: 12.5 mg/kg/injection, schedule: Q01DX010 (sc), vehicle: steriod suspending solution); 116 % of control (dose: 25.0 mg/kg/injection, schedule: Q01DX010 (sc), vehicle: steriod suspending solution); 110 % of control (dose: 50.0 mg/kg/injection, schedule: Q01DX010 (sc), vehicle: steriod suspending solution); 113 % of control (dose: 100.0 mg/kg/injection, schedule: Q01DX010 (sc), vehicle: steriod suspending solution).
Take `O=C(Nc1ccc(NC(=O)Nc2ccc(C3=NCCN3)cc2)cc1)Nc1ccc(C2=NCCN2)cc1`: the T/C was 150 % of control (dose: 250.0 mg/kg/injection, schedule: Q01DX010 (ip), vehicle: saline) and 154 % of control (dose: 375.0 mg/kg/injection, schedule: Q01DX010 (ip), vehicle: saline).
